Assays:
Test in all cases: relative viability (nuclei count vs DMSO), 5 days (fraction); higher = more cells survive
Avagacestat + Alpelisib = compound: NC(=O)[C@@H](CCC(F)(F)F)N(Cc1ccc(-c2ncon2)cc1F)S(=O)(=O)c1ccc(Cl)cc1 [Avagacestat] + Cc1nc(NC(=O)N2CCC[C@H]2C(N)=O)sc1-c1ccnc(C(C)(C)C(F)(F)F)c1 [Alpelisib] (partner 2 µM)
How it was run: (§1)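 Cells from lung cancer lines were seeded into 1536-well plates and, one day later, dosed by pin tool. Treatments were either a single drug or a fixed dose of an anchor drug with five library-drug doses (not always all listed) in √10 steps. After 5 days, nuclei were stained in a one-step fixation (final 0.05% Triton X-100, 1% formaldehyde, 1 ug/ml Hoechst) and counted on 4× images, and relative viability is the treated-to-vehicle nuclei ratio, as the median of duplicate plates.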

Avagacestat + Vorinostat = compound: NC(=O)[C@@H](CCC(F)(F)F)N(Cc1ccc(-c2ncon2)cc1F)S(=O)(=O)c1ccc(Cl)cc1 [Avagacestat] + O=C(CCCCCCC(=O)Nc1ccccc1)NO [Vorinostat] (partner 1 µM)
How it was run: as §1

Avagacestat + Navitoclax = compound: NC(=O)[C@@H](CCC(F)(F)F)N(Cc1ccc(-c2ncon2)cc1F)S(=O)(=O)c1ccc(Cl)cc1 [Avagacestat] + CC1(C)CCC(c2ccc(Cl)cc2)=C(CN2CCN(c3ccc(C(=O)NS(=O)(=O)c4ccc(N[C@H](CCN5CCOCC5)CSc5ccccc5)c(S(=O)(=O)C(F)(F)F)c4)cc3)CC2)C1 [Navitoclax] (partner 0.5 µM)
How it was run: as §1

Avagacestat + Linsitinib = compound: NC(=O)[C@@H](CCC(F)(F)F)N(Cc1ccc(-c2ncon2)cc1F)S(=O)(=O)c1ccc(Cl)cc1 [Avagacestat] + C[C@]1(O)C[C@@H](c2nc(-c3ccc4ccc(-c5ccccc5)nc4c3)c3c(N)nccn32)C1 [Linsitinib] (partner 1 µM)
How it was run: as §1

| Cell Line | relative viability (Avagacestat + Alpelisib; first compound 0.08 µM) | relative viability (Avagacestat + Alpelisib; first compound 0.253 µM) | relative viability (Avagacestat + Alpelisib; first compound 0.8 µM) | relative viability (Avagacestat + Alpelisib; first compound 2.53 µM) | relative viability (Avagacestat + Alpelisib; first compound 8 µM) | relative viability (Avagacestat + Vorinostat; first compound 0.08 µM) | relative viability (Avagacestat + Vorinostat; first compound 0.253 µM) | relative viability (Avagacestat + Vorinostat; first compound 0.8 µM) | relative viability (Avagacestat + Vorinostat; first compound 2.53 µM) | relative viability (Avagacestat + Vorinostat; first compound 8 µM) | relative viability (Avagacestat + Navitoclax; first compound 0.253 µM) | relative viability (Avagacestat + Navitoclax; first compound 0.8 µM) | relative viability (Avagacestat + Navitoclax; first compound 2.53 µM) | relative viability (Avagacestat + Navitoclax; first compound 8 µM) | relative viability (Avagacestat + Linsitinib; first compound 0.08 µM) | relative viability (Avagacestat + Linsitinib; first compound 0.253 µM) | relative viability (Avagacestat + Linsitinib; first compound 0.8 µM) | relative viability (Avagacestat + Linsitinib; first compound 2.53 µM) | relative viability (Avagacestat + Linsitinib; first compound 8 µM) | relative viability (Avagacestat + Navitoclax; first compound 0.08 µM) |
| --- | --- | --- | --- | --- | --- | --- | --- | --- | --- | --- | --- | --- | --- | --- | --- | --- | --- | --- | --- | --- |
| NCI-H460 | 0.724 | 0.538 | 0.688 | 0.472 | 0.357 | 1.37 | 0.69 | 0.828 | 0.554 | 0.57 | 1.92 | 1.37 | 0.759 | 1.15 | 1.01 | 0.896 | 1.35 | 0.673 | 0.588 |  |
| NCI-H1915 | 1.03 | 1.12 | 1.04 | 1.03 | 1.02 | 0.56 | 0.633 | 0.522 | 0.477 | 0.479 | 0.812 | 0.798 | 0.807 | 0.828 | 1.11 | 1.18 | 1.08 | 1.08 | 1.09 | 0.84 |
| NCI-H2009 | 1.28 | 1.29 | 1.16 | 1.18 | 1.08 | 0.704 | 0.876 | 0.733 | 0.722 | 0.694 | 1.23 | 1.17 | 1.12 | 1.13 | 1.26 | 1.34 | 1.2 | 1.22 | 1.1 | 1.27 |
| NCI-H1793 | 0.967 | 0.777 | 0.822 | 0.769 | 0.672 | 0.841 | 0.985 | 0.773 | 0.865 | 0.993 | 0.491 | 0.507 | 0.347 | 0.396 | 1.01 | 0.926 | 1.02 | 0.913 | 0.657 | 0.434 |
| NCI-H1395 | 0.938 | 0.996 | 0.879 | 1.05 | 0.943 | 0.64 | 0.519 | 0.719 | 0.429 | 0.63 | 1.23 | 1.03 | 0.903 | 1.11 | 1.11 | 1.1 | 1.04 | 0.869 | 0.881 | 1.12 |
| NCI-H1355 | 0.924 | 0.994 | 0.74 | 0.759 | 0.787 | 0.702 | 0.637 | 0.628 | 0.527 | 0.542 | 0.999 | 0.923 | 0.768 | 0.833 | 0.95 | 0.859 | 0.812 | 0.687 | 0.651 | 1.14 |
| HOP-62 | 1 | 0.908 | 0.971 | 0.94 | 0.889 | 0.822 | 0.667 | 0.65 | 0.588 | 0.564 | 1.12 | 0.962 | 0.978 | 0.895 | 1.06 | 0.852 | 0.992 | 0.919 | 0.94 | 1.26 |
| NCI-H23 | 0.912 | 0.766 | 0.768 | 0.683 | 0.688 | 0.921 | 0.66 | 0.665 | 0.69 | 0.592 | 0.993 | 0.99 | 0.877 | 0.943 | 0.759 | 0.636 | 0.675 | 0.548 | 0.456 | 0.876 |
| EMC-BAC-2 | 0.897 | 0.81 | 0.748 | 0.653 | 0.717 | 0.662 | 0.581 | 0.803 | 0.535 | 0.51 | 1.54 | 1.38 | 1.1 | 1.17 | 0.882 | 0.953 | 0.84 | 0.738 | 0.784 | 1.46 |
| NCI-H2347 | 1.15 | 1.08 | 1.12 | 0.957 | 1.02 | 0.599 | 0.646 | 0.78 | 0.499 | 0.522 | 0.866 | 0.923 | 0.663 | 0.797 | 1.04 | 0.989 | 1.02 | 0.943 | 0.897 | 0.907 |
| SW 1573 | 0.858 | 0.855 | 0.688 | 0.753 | 0.494 | 0.933 | 0.672 | 1.05 | 0.624 | 0.672 | 0.97 | 0.989 | 1.04 | 0.974 | 0.894 | 0.876 | 0.756 | 0.771 | 0.699 | 1.3 |
| HCC-15 | 1.01 | 1.05 | 0.93 | 0.861 | 0.802 | 0.976 | 1.03 | 0.979 | 0.796 | 0.818 | 0.806 | 0.799 | 0.732 | 0.591 | 0.985 | 0.998 | 0.874 | 0.936 | 0.755 | 0.87 |
| NCI-H3122 | 0.903 | 0.966 | 0.802 | 0.813 | 0.739 | 1.07 | 1.4 | 1.01 | 1.02 | 0.918 | 1.09 | 1.08 | 1.01 | 1.03 | 1.05 | 1.02 | 0.989 | 1.01 | 1 | 0.95 |
| CAL-12T | 1.39 | 1.74 | 1.27 | 1.17 | 1.24 | 0.918 | 1.1 | 0.796 | 0.729 | 0.798 | 1.44 | 1.3 | 1.32 | 1.22 | 0.94 | 0.865 | 0.931 | 0.768 | 0.693 | 1.52 |
| COR-L23 | 0.982 | 1.01 | 0.788 | 0.743 | 0.568 | 0.474 | 0.457 | 0.484 | 0.366 | 0.332 | 1.31 | 1.04 | 1 | 0.814 | 1.21 | 0.896 | 0.869 | 0.764 | 0.573 | 1.57 |
| NCI-H2087 | 1.12 | 1.26 | 1.28 | 1.18 | 1.03 | 1.14 | 0.914 | 1.07 | 0.771 | 0.68 | 1.19 | 1.02 | 1.16 | 0.931 | 1.2 | 1.2 | 1.03 | 1.2 | 1.02 | 1.34 |
| LC-2-ad | 0.798 | 0.707 | 0.769 | 0.81 | 0.788 | 0.73 | 0.847 | 0.74 | 0.654 | 0.595 | 0.528 | 0.534 | 0.423 | 0.428 | 0.819 | 0.896 | 0.87 | 0.778 | 0.807 | 0.652 |
| H3255 | 0.759 | 0.736 | 0.836 | 0.678 | 0.741 | 0.825 | 0.89 | 1.03 | 0.861 | 0.7 | 0.59 | 0.71 | 0.431 | 0.498 | 1.02 | 1.17 | 0.975 | 0.899 | 0.898 | 0.504 |
| NCI-H727 | 0.749 | 0.682 | 0.695 | 0.467 | 0.558 | 1.27 | 1.19 | 1.21 | 1.18 | 1.19 | 0.461 | 0.596 | 0.339 | 0.459 | 0.252 | 0.342 | 0.35 | 0.278 | 0.26 | 0.408 |
| LCLC-97TM1 | 0.265 | 0.224 | 0.185 | 0.186 | 0.218 | 1.01 | 0.847 | 0.862 | 0.838 | 0.57 | 0.409 | 0.39 | 0.128 | 0.341 | 0.161 | 0.212 | 0.155 | 0.151 | 0.163 | 0.467 |
| LU99A | 0.659 | 0.498 | 0.529 | 0.51 | 0.483 | 0.611 | 0.541 | 0.624 | 0.468 | 0.481 | 0.8 | 0.776 | 0.852 | 0.777 | 0.598 | 0.561 | 0.63 | 0.563 | 0.644 | 0.869 |
| NCI-H1651 | 1.05 | 1.3 | 1.15 | 0.978 | 0.909 | 0.583 | 0.566 | 0.681 | 0.52 | 0.567 | 1.33 | 1.3 | 1.07 | 0.764 | 1.37 | 1.17 | 1.05 | 0.854 | 0.828 | 1.28 |
| NCI-H322M | 0.762 | 0.787 | 0.904 | 0.633 | 0.54 | 0.811 | 0.779 | 0.855 | 0.821 | 0.777 | 1.16 | 1.22 | 1.14 | 1.07 | 0.826 | 0.892 | 1.03 | 0.823 | 0.681 | 1.24 |
| SK-LU-1 | 1.02 | 0.633 | 0.937 | 0.773 | 0.807 | 0.885 | 0.714 | 0.865 | 0.636 | 0.71 | 1.08 | 1 | 0.706 | 0.93 | 1.13 | 1.3 | 1.02 | 0.918 | 0.983 | 1.11 |
| NCI-H1666 | 1.26 | 0.982 | 1.32 | 1.03 | 1.1 | 1.17 | 1.23 | 1.28 | 1.12 | 1.09 | 1.11 | 1.17 | 0.955 | 1.02 | 1.03 | 0.861 | 1.02 | 0.865 | 1.02 | 1.15 |
| NCI-H2126 | 0.737 | 0.743 | 0.747 | 0.734 | 0.68 | 0.792 | 0.715 | 0.842 | 0.711 | 0.753 | 0.899 | 0.875 | 0.798 | 0.832 | 0.757 | 0.705 | 0.696 | 0.706 | 0.67 | 1.02 |

Reference: the supplement of paper PMC10307832
